Measured values taken from paper PMC3510080, “Identification of Compounds with Anti-Proliferative Activity against Trypanosoma brucei brucei Strain 427 by a Whole Cell Viability Based HTS Campaign” (PLoS Neglected Tropical Diseases, 2012).
Where “and” joins values, the source holds several entries; their conditions need not be identical. Equal entries are not always repeated. Where two headings read alike, the source gives them in different places.

Columns and labels:
[1] = tested on: HEK293 cells; assay: HEK293 Alamar Blue viability estimation assay; type: cell-based, human; conditions: for IC50: Homo sapiens, HEK293
Description: (§1) T.b. brucei lister 427 cells were maintained in log phase growth in 25 cm^2 tissue culture flasks (Corning, NY, USA) by sub-culturing at either 24 or 48 hour intervals. Cells were grown in HMI-9 medium, supplemented with 10% fetal calf serum (FCS) and 100 IU/ml penicillin/streptomycin (Invitrogen, Carlsbad, California, USA) with incubation at 5% CO2 at 37°C in humidified conditions. HEK293 cells were maintained in high glucose DMEM with L-glutamine, supplemented with 1× non-essential amino acids (NEAA; Invitrogen, USA) and 1 mM sodium pyruvate. Growth conditions were in 5% CO2 at 37°C, under humidified conditions.
Cells at 80% confluence were harvested and diluted in growth medium (high glucose DMEM supplemented with 10% FCS) to 7.27×10^4 cells/ml. Under sterile conditions, 55 µl of diluted cells per well were added to a black, clear bottomed 384-well lidded plate (BD Biosciences, Bedford, MA, USA) with a Multidrop liquid handler (Thermo Scientific, Barrington, IL, USA). Incubation times, compound additions and plate read were as per the trypanosome viability assay, with the exception that Alamar Blue was diluted in HEK293 growth media before addition, and incubation of Alamar Blue at 37°C, in 5% CO2, was for 4 hours, followed by incubation at room temperature for 20 hours. The activity of compounds against HEK293 cells was used to calculate the SI of mammalian to T.b. brucei cells. The control compound for HEK293 cells was puromycin (Calbiochem, USA).
Compounds identified from primary screening were retested against both T.b. brucei and HEK293 cells in duplicate and at varying concentrations to obtain a dose-response curve. Thus, a 5 µl sample of fresh compound stock solution (5 mM in DMSO) was cherry picked into 384-well plates and diluted 1∶10 in dilution medium (high glucose DMEM without FCS). Serial dilutions of these samples were then prepared in the same media by a Minitrak robotic liquid handler (Perkin Elmer, USA). […] A screening dose of 10.4 µM was included in the dilution series to enable reconfirmation of primary screening T.b. brucei activity.
The DMSO working concentration in the serial dilutions was maintained at 5%, giving a final assay concentration of 0.42% DMSO, except for the 41.7 µM test compound solution, where as previously stated the corresponding DMSO concentration was 0.83% v/v. […] Therefore the 41.7 µM test compound sample with 0.83% v/v DMSO was not used in the T.b. brucei assay and thus the top test compound concentration in this assay was 20.8 µM.
Compound activity in the retest campaign was calculated as percentage inhibition in relation to positive and negative controls, in the same manner as the primary screening campaign. The positive controls, pentamidine (2 µM final concentration) for T.b. brucei and puromycin (8 µM final concentration) for HEK293, were both screened in whole 384-well control plates. Whole 384-well plate controls were included after every batch of 20 compound plates, and were comprised of half a plate of negative control and half a plate of positive control. The negative control was the vehicle, […]. The negative control was also included in column 24 of each compound assay plate to determine signal variation from plate to plate and to calculate compound activity. The exception was the 41.7 µM compound dose used in the HEK293 assay. In these plates column 24 contained 0.83% DMSO as a negative control. A separate 384-well plate containing a 13 point dose-response of the reference compounds puromycin, pentamidine and diminazene, in triplicate, was also included per 20 compound test plate batch to estimate assay sensitivity.
These compounds were retested as in dose for N of three replicates, as described above for both T.b. brucei and HEK293.

[2] = tested on: T.b. brucei bloodstream form lister 427; assay: T.b. brucei Alamar Blue viability estimation assay (384-well HTS, retest and rescreen); type: cell-based, Trypanosoma brucei brucei; conditions: for Estimated Selectivity Index: retest campaign; for Primary Screening Activity 10.2µM (%): single point, inhibition relative to controls
Description: as §1
All reagent and cell additions were made with a Multidrop liquid handler (Thermo Scientific, Newington, NH, USA) under sterile conditions. Fifty-five microliters of 2000 cells/mL of T.b. brucei in HMI-9 medium were added to a black, clear-bottomed 384-well lidded plate (BD Biosciences, Franklin Lanes, NJ, USA). Cells were incubated for 24 hours at 37°C in an atmosphere of 5% CO2 before addition of 5 µl of compounds/DMSO for control wells. Compounds suspended in 100% DMSO or 100% DMSO as controls were pre-diluted 1∶21 in high glucose DMEM without FCS by using a Minitrack robotic liquid handler (PerkinElmer, Waltham, MA, USA). Five microliters of diluted sample was added to the plate to give a final DMSO concentration of 0.417% in the assay. Cells were incubated for an additional 48 hours at 37°C. Ten microliters of 70% Alamar Blue (Biosource, Bethesda, MD, USA) was added to each well (diluted in HMI-9 medium supplemented with 10% FCS) to a final concentration of 10% in the assay. The plate was incubated for two hours under the same conditions, then incubated for 22 hours in the dark at room temperature. Wells were read at 535 nm (excitation) and 590 nm (emission) wavelengths on a Victor II Wallac plate reader (PerkinElmer, USA). Specific dilutions are explained further in the primary and retest assay methodology. Reference drugs used in the assay were pentamidine (Sigma-Aldrich, St Louis, MO, USA), diminazene aceturate (Sigma-Aldrich, USA) and puromycin (Calbiochem, San Deigo, CA, USA). Pentamidine is used to treat patients with HAT and diminazene is a veterinary drug used against T.b. brucei to combat infections in cattle.
Primary screening of the library, consisting of 87,296 compounds in two hundred and forty eight 384-well plates, was undertaken in single point against T.b. brucei. Stock solutions consisted of test compound at a concentration of 5 mM in 100% DMSO. One µl of each compound stock solution was diluted by the addition of 40 µl of dilution medium (high glucose DMEM without FCS) by a multidrop liquid handler (Thermo Scientific, USA). A 5 µl sample of this diluted solution was then added to the trypanosome assay plate. The final concentration of test compound in the assay was […] and that of DMSO was 0.42% v/v. Compounds were screened over a total of 11 days, at an average of 80 plates per day, taking into consideration that the assay incubation was 3 days total. Test compounds were added to plates in batches of 20 at two hour intervals, to maintain the timing of additions and reads.
Compound activity was calculated as the percentage inhibition in relation to positive and negative controls. […] These in-plate negative controls were used in an effort to normalise compound activity in relation to any plate to plate variation in the assay signal. A whole 384-well control plate was included in each day's screening, one per 20 compound plates containing half a plate of 2 µM pentamidine for the positive assay control, and half a plate of 0.42% v/v DMSO as a negative control. The positive assay control was used to calculate compound activity for batches of 20 compound plates. As well providing the positive control data, these whole plate controls were used for the calculation of the Z' to measure the reproducibility of the assay.

[3] = HEK293 IC50 / T.b. brucei IC50, > if less than 50% activity at 75.8 µM in HEK293
[4] = Trypanosoma brucei, Alamar Blue-based HTS assay format, run with time to kill study, read-out: Activity (IC50 value) AB assay
[5] = Trypanosoma brucei, re-synthesised/re-purchased compounds, three experiments, two replicates each, read-out: Compound activity T.B (IC50)
[6] = Trypanosoma brucei, retest campaign from stock solutions, duplicate, read-out: Retest IC50 T.b.brucei
[7] = re-synthesised/re-purchased compounds, three experiments, two replicates each, read-out: Compound activity T.B (IC50)
[8] = Trypanosoma brucei, read-out: Activity (IC50 value) AB assay, Alamar Blue-based HTS assay format, run with time to kill study
[9] = Trypanosoma brucei, read-out: Compound activity T.B (IC50), re-synthesised/re-purchased compounds, three experiments, two replicates each
[10] = pentamidine 1 µM, diminazene 40 µM
[11] = Trypanosoma brucei, 13 control plates, triplicate dose-response, read-out: IC50 of reference compounds, primary screening campaign
[12] = Trypanosoma brucei, reference compounds, read-out: IC50 against T.b. brucei, retest screening campaign

Compound | IC50 ([1]; read-out: Restest IC50 HEK) [µM] | Selectivity Index T.B [2, 3] | IC50 [2, 4] [nM] | IC50 [2, 5] [nM] | IC50 [2, 6] [nM] | IC50 [2, 7] [nM] | Estimated Selectivity Index ([2]; HEK293 IC50 / T.b. brucei IC50) | Primary Screening Activity 10.2µM (%) [2] [%] | IC50 [2, 9] [nM] | also measured
CC(C)(C)C(=O)NCCc1csc(-c2cccc(F)c2)n1 [Compound 1] | 41.7 | >96.0 | 1100 ± 65.1 | 790 | 441 | 785 ± 82.9 | 94.6 | 100 |  | 
O=C(NCCc1n[nH]c(-c2ccc(F)cc2)n1)c1cccc(F)c1 [Compound 2] | 41.7 |  |  | 4000 ± 55.5 | 1930 |  | 21.6 | 99.5 |  | IC50 [2, 8]: 4710 ± 272 nM
CCOc1ccc(OCc2ccc(C(=O)N3CCCC(C)C3)cc2)cc1 (centres unmarked) [Compound 3] | 41.7 | >67.1 |  | 1100 | 2560 | 1130 ± 347 | 16.3 | 99 |  | 
Cc1cc(O)nc(-n2nc(C)cc2NC(=O)C2CCCC2)n1 [Compound 4] |  | 25 and 24.6 |  |  |  | 3080 ± 290 |  |  | 3100 | 
CCS(=O)(=O)N1CCCc2ccc(NS(=O)(=O)c3ccccc3F)cc21 [Compound 5] |  | >35.9 |  |  |  | 2110 ± 130 |  |  | 2100 | 
CCC(C)NC(=O)c1nc(-c2ccccc2)cnc1N (centres unmarked) [Compound 6] |  | >65.3 |  | 1200 |  | 1160 ± 304 |  |  |  | IC50 [2, 8]: 160 ± 40.3 nM
O=C(Nc1ccc(Cl)c(-c2nc3ncccc3o2)c1)c1ccco1 [Compound 7] | > 41.7 |  | 198 ± 1.28 |  |  | 218 ± 7.14 |  | 100 | 220 | IC50 ([2]; Trypanosoma brucei, read-out: Retest IC50 T.b.brucei, retest campaign from stock solutions, duplicate): 169 nM
CCc1ccccc1N=C(NCCN1CCOCC1)NC(=O)c1ccccc1 [Compound 8] |  | >29.0 |  | 2600 |  | 2610 ± 320 |  |  |  | 
N=C(N)c1ccc(OCCCCCOc2ccc(C(=N)N)cc2)cc1 [Pentamidine, pentamidine, reference compound] |  |  | 5.81 ± 0.707 |  |  |  |  |  |  | activity in the HEK293 assay at the doses screened, rescreening [1, 10]: neither pentamidine nor diminazene displayed activity; activity in the HEK293 assay at the doses screened, retest campaign [1, 10]: Neither pentamidine nor diminazene displayed activity; Selectivity Index T.B [2]: >283; IC50 [2, 11]: 14.7 ± 4.7 nM; IC50 ([2]; Trypanosoma brucei, during rescreening of resynthesized compounds, read-out: Reference Compound Activity T.B (IC50)): 3.52 ± 0.36 nM; IC50 [2, 12]: 7.8 ± 3.6 nM
COc1ccc(C[C@H](N)C(=O)N[C@H]2[C@@H](O)[C@H](n3cnc4c(N(C)C)ncnc43)O[C@@H]2CO)cc1 [Puromycin, puromycin, reference compound] |  |  | 64.1 ± 0.24 |  |  |  | less than 10 |  |  | IC50 ([1]; reference compound, read-out: IC50 against HEK293, retest screening campaign): 1.12 ± 0.155 µM; IC50 ([1]; reference compound, read-out: IC50 in HEK293 assay, rescreening of resynthesized compounds): 0.518 ± 0.0281 µM; Selectivity Index T.B [2]: 8.90; IC50 ([2]; 13 control plates, triplicate dose-response, read-out: IC50 of reference compounds, primary screening campaign): 61.9 ± 6.8 nM; IC50 [2, 11]: 61.9 ± 6.8 nM; IC50 ([2]; Trypanosoma brucei, read-out: Reference Compound Activity T.B (IC50), during rescreening of resynthesized compounds): 58.4 ± 0.769 nM; IC50 [2, 12]: 138 ± 15.7 nM
